Laboratory results reported in PubChem BioAssay AID330 (DTP/NCI, 2004).
“And” between values parts separate entries of the source, which are not always exact repeats. Identical values can stand only once. Toxic doses and inconclusive results are not listed. How the source made its calls: active means survival T/C of 150% or more; inactive means T/C below 125% in these data.

Test system: P388 leukemia ip, CD2F1 mice, survival T/C
Test: NCI In Vivo Anticancer Drug Screen. Data for tumor model P388 Leukemia (intraperitoneal) in CD2F1 (CDF1) mice
Details: endpoint: median survival time, higher = longer survival
Summary of the method: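 Mice carrying the transplanted tumor received test compound or vehicle. Survival was recorded in each group, and the value is the treated-group measurement divided by that of the vehicle-treated control group.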

[1] = dose: 12.5 mg/kg/injection, schedule: Q01DX009 (ip), vehicle: saline with Tween-80
[2] = dose: 25.0 mg/kg/injection, schedule: Q01DX009 (ip), vehicle: saline with Tween-80
[3] = dose: 50.0 mg/kg/injection, schedule: Q01DX009 (ip), vehicle: saline with Tween-80
[4] = dose: 200.0 mg/kg/injection, schedule: Q01DX009 (ip), vehicle: saline with Tween-80
[5] = dose: 50.0 mg/kg/injection, schedule: Q01DX005 (ip), vehicle: saline with Tween-80
[6] = dose: 100.0 mg/kg/injection, schedule: Q01DX005 (ip), vehicle: saline with Tween-80
[7] = dose: 200.0 mg/kg/injection, schedule: Q01DX005 (ip), vehicle: saline with Tween-80
[8] = dose: 50.0 mg/kg/injection, schedule: Q01DX005 (ip), vehicle: Klucel (hydroxypropylcellulose) (HPC)
[9] = dose: 100.0 mg/kg/injection, schedule: Q01DX005 (ip), vehicle: Klucel (hydroxypropylcellulose) (HPC)
[10] = dose: 200.0 mg/kg/injection, schedule: Q01DX005 (ip), vehicle: Klucel (hydroxypropylcellulose) (HPC)
[11] = dose: 100.0 mg/kg/injection, schedule: Q01DX009 (ip), vehicle: saline with Tween-80
[12] = dose: 100.0 mg/kg/injection, schedule: Q04DX003 (ip), vehicle: saline with Tween-80
[13] = dose: 200.0 mg/kg/injection, schedule: Q04DX003 (ip), vehicle: saline with Tween-80
[14] = dose: 400.0 mg/kg/injection, schedule: Q04DX003 (ip), vehicle: saline with Tween-80
[15] = dose: 60.0 mg/kg/injection, schedule: Q01DX005 (ip), vehicle: saline with Tween-80
[16] = dose: 120.0 mg/kg/injection, schedule: Q01DX005 (ip), vehicle: saline with Tween-80
[17] = dose: 240.0 mg/kg/injection, schedule: Q01DX005 (ip), vehicle: saline with Tween-80
[18] = dose: 50.0 mg/kg/injection, schedule: Q04DX003 (ip), vehicle: saline with Tween-80

Measured: T/C

NC(CSC1(c2cccc3ccccc23)c2ccccc2-c2ccccc21)C(=O)O (centres undefined)
inactive: dose: 60.0 mg/kg/injection, schedule: Q01DX005 (ip), vehicle: Klucel (hydroxypropylcellulose) (HPC) 93 % of control | dose: 120.0 mg/kg/injection, schedule: Q01DX005 (ip), vehicle: Klucel (hydroxypropylcellulose) (HPC) 90 % of control | dose: 240.0 mg/kg/injection, schedule: Q01DX005 (ip), vehicle: Klucel (hydroxypropylcellulose) (HPC) 88 % of control

CCOc1c(N=Nc2ccccc2)c(C)nn1C(=S)SC
inactive: dose: 60.0 mg/kg/injection, schedule: Q01DX005 (ip), vehicle: Klucel + Tween-80 110 % of control | dose: 120.0 mg/kg/injection, schedule: Q01DX005 (ip), vehicle: Klucel + Tween-80 108 % of control | dose: 240.0 mg/kg/injection, schedule: Q01DX005 (ip), vehicle: Klucel + Tween-80 100 % of control

COC(=O)C1=NC1c1ccc(C)cc1 (centres undefined)
inactive: dose: 100.0 mg/kg/injection, schedule: Q01DX001 (ip), vehicle: saline with Tween-80 104 % of control | dose: 200.0 mg/kg/injection, schedule: Q01DX001 (ip), vehicle: saline with Tween-80 110 % of control | dose: 400.0 mg/kg/injection, schedule: Q01DX001 (ip), vehicle: saline with Tween-80 100 % of control

O=[N+]([O-])c1ccc(-c2sc(-c3ccccc3)nc2O)cc1
inactive: [1] 100 % of control | [2] 98 % of control | [3] 91 % of control and 94 % of control | [4] 88 % of control

c1ccc2c3c(ccc2c1)OCCOCCOc1ccc2ccccc2c1-c1c(ccc2ccccc12)OCCOCCOc1ccc2ccccc2c1-3
inactive: dose: 100.0 mg/kg/injection, schedule: Q04DX002 (ip), vehicle: saline with Tween-80 96 % of control | dose: 200.0 mg/kg/injection, schedule: Q04DX002 (ip), vehicle: saline with Tween-80 89 % of control | dose: 400.0 mg/kg/injection, schedule: Q04DX002 (ip), vehicle: saline with Tween-80 91 % of control

O=C1OCCOCCOCCOCCOC(=O)c2cccc1c2
inactive: dose: 100.0 mg/kg/injection, schedule: Q04DX003 (ip), vehicle: suspension in saline 100 % of control | dose: 200.0 mg/kg/injection, schedule: Q04DX003 (ip), vehicle: suspension in saline 104 % of control | dose: 400.0 mg/kg/injection, schedule: Q04DX003 (ip), vehicle: suspension in saline 99 % of control

S=c1ncnc2cc3[nH][nH]cc3cc12
inactive: [5] 90 % of control | [6] 86 % of control | [7] 92 % of control

Cc1nc2c(Cl)cccc2c2ccccc12
inactive: [8] 88 % of control | [9] 92 % of control | [10] 88 % of control

CCCCC1CC=CC(NC#N)=N1 (centres undefined)
inactive: [3] 100 % of control | [11] 104 % of control | [4] 115 % of control

O=C(O)C1CC(=O)N(Cc2ccccc2)C1 (centres undefined)
inactive: [12] 95 % of control | [13] 100 % of control | [14] 100 % of control

COc1ccc(C2CC(C)(OC)Oc3cc4c(cc32)OCO4)cc1 (centres undefined)
inactive: dose: 100.0 mg/kg/injection, schedule: Q01DX001 (ip), vehicle: Klucel (hydroxypropylcellulose) (HPC) 100 % of control | dose: 200.0 mg/kg/injection, schedule: Q01DX001 (ip), vehicle: Klucel (hydroxypropylcellulose) (HPC) 94 % of control

Cc1ccc(NC(=O)CCC(=O)C(C)C(=O)c2ccccc2)cc1C (centres undefined)
inactive: [15] 105 % of control | [16] 105 % of control | [17] 109 % of control

C[CH2][Ge]([Cl])([CH2]C)[c]1cc[c]([Ge]([Cl])([CH2]C)[CH2]C)cc1
inactive: [8] 98 % of control | [9] 96 % of control | [10] 99 % of control

Oc1c(Cl)cc(Cl)cc1/C=N/Nc1ccc2ccccc2n1
inactive: [18] 89 % of control | [12] 94 % of control | [13] 100 % of control

CSCc1cc(Cl)ccc1N
inactive: [3] 97 % of control | [11] 97 % of control | [4] 97 % of control

c1ccc(-c2csc3nc(N4CCCCC4)cn23)cc1
inactive: dose: 100.0 mg/kg/injection, schedule: Q04DX003 (ip), vehicle: saline + Tween-80 + alcohol 107 % of control | dose: 200.0 mg/kg/injection, schedule: Q04DX003 (ip), vehicle: saline + Tween-80 + alcohol 107 % of control

CC(=O)Nc1ccc(/C=N/NC(=O)CNC(=O)Nc2cccc(Cl)c2Cl)cc1
inactive: [2] 99 % of control | [3] 97 % of control | [11] 89 % of control | [4] 93 % of control

O=c1n(-c2ccccc2)c(=O)n2c(=O)n(-c3ccccc3)c(=O)n12
inactive: dose: 50.0 mg/kg/injection, schedule: Q01DX009 (ip), vehicle: Klucel (hydroxypropylcellulose) (HPC) 105 % of control | dose: 100.0 mg/kg/injection, schedule: Q01DX009 (ip), vehicle: Klucel (hydroxypropylcellulose) (HPC) 93 % of control | dose: 200.0 mg/kg/injection, schedule: Q01DX009 (ip), vehicle: Klucel (hydroxypropylcellulose) (HPC) 89 % of control

Cc1c(O)c2ccc(N(C)C)cc2[nH]c1=O
inactive: [5] 101 % of control | [6] 95 % of control | [7] 100 % of control

BrCCCC1OCCO1
inactive: [15] 100 % of control | [16] 100 % of control | [17] 104 % of control

O=c1[nH]c(=S)[nH]cc1Oc1ccc(Cl)cc1Cl
inactive: [3] 94 % of control | [11] 93 % of control | [4] 95 % of control | dose: 400.0 mg/kg/injection, schedule: Q01DX009 (ip), vehicle: saline with Tween-80 108 % of control

S=C([S][Sn]([c]1ccccc1)([c]1ccccc1)[c]1ccccc1)N1CCCCC1
inactive: dose: 3.12 mg/kg/injection, schedule: Q01DX009 (ip), vehicle: saline with Tween-80 99 % of control | dose: 6.25 mg/kg/injection, schedule: Q01DX009 (ip), vehicle: saline with Tween-80 104 % of control | [1] 107 % of control | [2] 112 % of control

N#CC1(C#N)C2C=CC(C3CC=CC32)C1(C#N)C#N (centres undefined)
inactive: dose: 3.13 mg/kg/injection, schedule: Q01DX009 (ip), vehicle: Klucel (hydroxypropylcellulose) (HPC) 106 % of control | dose: 6.25 mg/kg/injection, schedule: Q01DX009 (ip), vehicle: Klucel (hydroxypropylcellulose) (HPC) 98 % of control | dose: 12.5 mg/kg/injection, schedule: Q01DX009 (ip), vehicle: Klucel (hydroxypropylcellulose) (HPC) 110 % of control | dose: 25.0 mg/kg/injection, schedule: Q01DX009 (ip), vehicle: Klucel (hydroxypropylcellulose) (HPC) 108 % of control

C(/CSC/C=N/Nc1ccccc1)=N\Nc1ccccc1
inactive: dose: 50.0 mg/kg/injection, schedule: Q01DX009 (ip), vehicle: saline 103 % of control | dose: 100.0 mg/kg/injection, schedule: Q01DX009 (ip), vehicle: saline 103 % of control

O=C1NC(=O)/C(=C2\CCOC2=O)N1
inactive: [3] 100 % of control | [11] 94 % of control | [4] 100 % of control

CC(C)=O
inactive: dose: 2.0 % in 0.5 ml injection vol, schedule: Q01DX009 (ip), vehicle: water 97 % of control | dose: 4.0 % in 0.5 ml injection vol, schedule: Q01DX009 (ip), vehicle: water 100 % of control and 101 % of control | dose: 8.0 % in 0.5 ml injection vol, schedule: Q01DX009 (ip), vehicle: water 102 % of control and 106 % of control | dose: 16.0 % in 0.5 ml injection vol, schedule: Q01DX009 (ip), vehicle: water 105 % of control

CCO/C=C\Br
inactive: [15] 105 % of control | [16] 99 % of control | [17] 100 % of control

CNc1c([N+](=O)[O-])cc2[nH]cnc2c1[N+](=O)[O-]
inactive: dose: 25.0 mg/kg/injection, schedule: Q04DX003 (ip), vehicle: saline with Tween-80 97 % of control | [18] 95 % of control

Cc1cc(Cl)c2ccccc2c1N
inactive: [12] 100 % of control | dose: 200.0 mg/kg/injection, schedule: Q01DX009 (ip), vehicle: other 105 % of control | [13] 95 % of control | dose: 400.0 mg/kg/injection, schedule: Q01DX009 (ip), vehicle: other 90 % of control | [14] 100 % of control

O=C1C=Cn2cc(-c3ccccc3)c(-c3ccccc3)c21
inactive: [8] 96 % of control | [9] 97 % of control | [10] 95 % of control
